The source of these data is patent publication EP0777471B1, “INHIBITION OF LEUKOTRIENE BIOSYNTHESIS WITH UREA DERIVATIVES” (MINNESOTA MINING AND MANUFACTURING COMPANY, priority 1994, dated 1996).

Assay [1] has as its target T1, 5-lipoxygenase (Homo sapiens, UniProt P09917).
T1 construct: Whole human blood is collected by venipuncture into EDTA; endogenous in cells; host or cells: leukocytes isolated from whole human blood (dextran sedimentation, hypotonic lysis)
T1 sequence (P09917 1-674): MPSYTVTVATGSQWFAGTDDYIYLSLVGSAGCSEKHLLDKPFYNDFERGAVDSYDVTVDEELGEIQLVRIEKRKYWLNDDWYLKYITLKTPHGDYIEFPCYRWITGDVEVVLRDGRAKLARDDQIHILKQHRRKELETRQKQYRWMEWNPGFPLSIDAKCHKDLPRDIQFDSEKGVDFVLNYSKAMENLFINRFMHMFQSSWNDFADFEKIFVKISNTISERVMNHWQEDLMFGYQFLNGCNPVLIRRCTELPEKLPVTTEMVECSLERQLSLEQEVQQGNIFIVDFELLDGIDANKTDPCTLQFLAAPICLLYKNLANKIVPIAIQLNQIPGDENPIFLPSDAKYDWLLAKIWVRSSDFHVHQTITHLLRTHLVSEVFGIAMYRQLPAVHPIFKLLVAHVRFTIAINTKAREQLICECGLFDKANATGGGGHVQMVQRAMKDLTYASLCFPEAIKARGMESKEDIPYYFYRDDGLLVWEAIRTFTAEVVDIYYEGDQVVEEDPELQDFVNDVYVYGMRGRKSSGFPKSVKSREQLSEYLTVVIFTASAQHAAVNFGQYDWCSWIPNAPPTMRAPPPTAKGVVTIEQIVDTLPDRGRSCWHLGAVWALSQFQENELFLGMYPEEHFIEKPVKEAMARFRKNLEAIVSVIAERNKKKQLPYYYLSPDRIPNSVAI
Nature of the assay: 5-Lipoxygenase inhibition in human leukocytes (A23187-stimulated, LTC4 radioimmunoassay). The class given is cell-based. The note with it: human leukocytes, A23187 Calcium Ionophore, LTC4 formed; read-out: IC50. The method, boiled down: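 Dextran-isolated human blood leukocytes (~1.0 × 10^7 cells/mL, Tris buffer with 1 mM CaCl2) were preincubated with compound 10 min at ambient temperature, then stimulated with A23187 calcium ionophore for 10 min at 37 °C. LTC4 in supernatants quantified by radioimmunoassay; duplicate wells.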

For assay [2], the system named is production of Leukotriene B4 (LTB4). Nature of the assay: Dog ex vivo Leukotriene B4 inhibition (oral dosing, blood challenged with calcium ionophore). It is filed as in vivo, beagle dogs. The conditions noted are these: each entry one dog, negative = stimulation of LTB4 production; for inhibition at 5 mg/kg: Canis lupus familiaris, po. A digest of the protocol:
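Beagle dogs (~10 kg) given compound orally by gavage in PEG 400 at 5 mg/kg; jugular blood drawn pre-dose and at selected post-dose times. Blood challenged with calcium ionophore 30 min at 37°C, plasma LTB4 measured by radioimmunoassay; % inhibition from post-dose versus pre-dose LTB4, one dog per value.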

Where [3] appears, read: 1 h, 1 hour post dose, read-out: % Inhibition 1 hour.
Where [4] appears, read: 2 h, 2 hour post dose, read-out: % Inhibition 2 hour.

Where “and” joins values, the source holds several entries; their conditions need not be identical. Equal entries are not always repeated. Where two headings read alike, the source gives them in different places.

Take `CC(C)CCN(O)C(=O)Nc1ccccc1` [Compound 44, 1-hydroxy-1-(3-methylbutyl)-3-phenylurea]: the IC50 in assay [1] is 0.01 µM. For the same molecule, the “% Inhibition 1 hour” value in assay [2] (5 mg/Kg, 1 hour post dose) is 80% and 52%. Further, in assay [2] (5 mg/Kg, 2 hour post dose), the “% Inhibition 2 hour” value was 11% and 5%. In addition, the “% Inhibition 4 hour” value in assay [2] (5 mg/Kg, 4 hour post dose) is -19% and 12%. In addition, the “% Inhibition 6 hour” value in assay [2] (5 mg/Kg, 6 hour post dose) is -19% and 30%.

Take `CC(C)CN(O)C(=O)Nc1ccccc1` [Compound 54, 1-Hydroxy-1-(2-methylpropyl)-3-phenylurea]: the IC50 in assay [1] is 0.094 µM. Besides, the inhibition at 5 mg/kg in assay [2] (setting [3]) was 99%; in assay [2] (setting [4]), 97%; in assay [2] (4 h, 4 hour post dose, read-out: % Inhibition 4 hour) it was 33%; in assay [2] (6 h, 6 hour post dose, read-out: % Inhibition 6 hour) it was 43%.

As for `CN(O)C(=O)Nc1cccc(S(C)(=O)=O)c1` [Compound 59, 1-Hydroxy-1-methyl-3-[3-(methylsulfonyl)phenyl]urea], the IC50 in assay [1] was determined as 1.1 µM. Moreover, the “% Inhibition 4 hour” value in assay [2] (5 mg/Kg, 4 hour post dose) is 83% and 75% and 78%. The “% Inhibition 6 hour” value in assay [2] (5 mg/Kg, 6 hour post dose) was 37% and 55% and 93% and 76%. Besides, the inhibition at 5 mg/kg in assay [2] (setting [3]) was found to be 100%; in assay [2] (setting [4]), 99%.
